Data taken from patent publication US11198680B2 (BioAxone BioSciences, Inc., priority 2016, dated 2021).

Assays:
[1] = target: ROCK2 (Homo sapiens (Human), UniProt O75116); assay: ROCK2 inhibition curves, MYPT1 substrate plate assay; format: biochemical; settings: purified ROCK2, MYPT1 substrate
Protocol: Each compound was dissolved at 100 mM in DMSO. This compound-DMSO solution is diluted to 500 μM in dH2O. Serial dilutions were prepared so that a semi-log range of compound is present after being diluted 5× in other assay reagents, from 100 μM through 1 nM.
10 μL of each concentration of each compound was added in duplicate to individual wells of a 96-well Maxisorp plate (ThermoFisher) pre-coated with the ROCK2 substrate MYPT1 (ThermoFisher). dH2O is added as a negative control.
Using a multichannel pipettor, […] of final volume per well was made by the addition of the following of each solution to begin the reaction: 10 μL 20 mM MOPS pH 7.2, 25 mM β-glycerophosphate, 5 mM EGTA, 1 mM Na3VO4, and 1 mM DTT, 10 μL 50 μM ATP, 10 μL 75 mM MgCl2, and 10 μL 1 mU/μL ROCK2 solution. […]
100 μL TMB/E solution was added to each well with a multichannel pipette. Upon sufficient color development, the reaction was stopped using 100 μL stop solution and absorbance read using a Wallac Victor2 plate reader at 450 nm.
Because absorbance values proportional to ROCK2 activity, plotting absorbance at 450 nm versus final concentration of metabolite and parent compound provides inhibition curves. Relative inhibitory profiles were determined through 4PL analysis of these curves. Variations in calculated IC50 are common before assay optimization due to variations in experimental variables.

[2] = test system: HUVEC monolayer; assay: LPA-treated HUVECs, endothelial monolayer integrity; format: cell-based, human; settings: 1 μM or 10 μM, 20 μM LPA 60 min
Protocol: Cell lines were exposed to each dose for 1 hr, and then are stimulated with 20 μM LPA for either 5 min or 1 hr as described below. All experiments were conducted in triplicate and analyzed by two independent assessors blinded to both cell line and treatment.
To examine HUVEC monolayer integrity, cells were plated on PDL-coated coverslips (Corning) coated with fibronectin, collagen-1 and gelatin. 50,000 cells were seeded on each coverslip situated in a 24-well plate. Cells were grown for 3 days at 37° C./5% CO2. […] The medium was exchanged by Medium 200 supplemented with 0.1% HSA and 20 μM of LPA (Santa Cruz) and incubated for 60 min.
After LPA stimulation, cells were fixed with 4% paraformaldehyde and stained for actin-phalloidin (ThermoFisher, Waltham, Mass.) and V-Cadherin (Cell Signaling, Danvers, Mass.) and mounted on microscope slides. Coverslips were imaged by fluorescence microscopy and the cell free holes in the monolayer are measured using Image J (freeware; https://imagej.nih.gov/ij/).

[3] = test system: Rho/ROCK activity (MLC2 diphosphorylation) in human brain microvascular endothelial cells; assay: LPA-treated hBMVECs, pMLC2 T18/S19 immunoblot; format: cell-based; settings: 20 μM LPA, Example 16, present tense
Protocol: (§1) Cells are exposed to each dose for 1 hr, and are then stimulated with 20 μM LPA for either 5 min or 1 hr as described below. All experiments are conducted in triplicate and analyzed by 2 independent assessors blinded to both cell line and treatment.
Cells are subjected to biochemical analysis of diphosphorylated MLC2 (Threonine 18/Serine 19 phosphorylation sites) and phosphorylated cofilin (Serine 9 phosphorylation site) using SDS-PAGE and immunoblotting. Cells are plated in 24-well tissue culture plates coated with 70 μg/ml rat collagen-1 (Corning) and grown in ENDO-growth media (Neuromics) for 3 days at 37° C./5% CO2 until confluency. […] The medium is exchanged for ENDO basal media supplemented with 1% HSA, 20 μM of LPA (Santa Cruz Biotech; Santa Cruz, Calif.) and the appropriate amount of compound being tested. After 5 min, the medium is aspirated and the cells are briefly washed with 1×PBS. Proteins are extracted from cells by lysis with RIPA buffer supplemented with complete protease/phosphatase inhibitor (HALT, Thermo Fisher Scientific), reduced and denatured using Laemmli sample buffer (BioRad; Hercules, Calif., beta-mercaptoethanol and subjected to SDS-PAGE.
Denatured samples are electrophoresed in reducing 10% Bis-Tris-PA gels (Novex; Thermo-Fisher), and are transferred onto 0.25 μm PVDF membranes (EMD Millipore). Membranes are probed using amti-pMLC2 T18/S19 (1:500; Cell Signaling) or anti-pCofilin (1:500, Cell Signaling S9) and anti-glyceraldehyde 3-phosphate dehydrogenase loading control (GAPDH, 1:10000; Abcam, Cambridge, Mass.). Protein levels are detected using a chemiluminescence substrate (Super Signal West, ThermoFisher) and images are captured using a FluoroChem SP Imaging System.

[4] = test system: hBMVEC monolayer; assay: LPA-treated hBMVECs, endothelial monolayer integrity; format: cell-based, human; settings: 1 μM or 10 μM, 20 μM LPA, Example 16, present tense
Protocol: as §1
To examine hBMVECs monolayer integrity, cells are plated on PDL-coated coverslips (Corning) coated with Fibronectin, Collagen-1 and gelatin. 50,000 cells are seeded on each coverslip situated in a 24-well plate. Cells are grown for 3 days in ENDO-growth media (Neuromics) at 37° C./5% CO2. […] The medium is exchanged for ENDO basal media supplemented with 1% HSA, 20 μM of LPA (Santa Cruz Biotech; Santa Cruz, Calif.) and the appropriate amount of compound being tested. After 60 min, cells were fixed with 4% paraformaldehyde and stained for actin-phalloidin (ThermoFisher) and V-Cadherin (Cell Signaling), and then were mounted on microscope slides. Coverslips were imaged by fluorescence microscopy and the cell-free holes in the monolayer are measured using Image J. 3.

[5] = test system: ROCK1; assay: KINOMEscan kinome screen; settings: percent of negative control binding; first ROCK1 row
Source text: The KINOMEscan™ screening platform (DiscoverX, Fremont, Calif.) employs a novel active site-directed competition binding assay to quantitatively measure interactions between test compounds and more than 450 human kinases and disease relevant mutant variants. […] Compounds that bind the kinase active site and directly (sterically) or indirectly (allosterically) prevent kinase binding to the immobilized ligand, will reduce the amount of kinase captured on the solid support. […] Screening “hits” are identified by measuring the amount of kinase captured in test versus control samples by using a quantitative, precise and ultra-sensitive qPCR method that detects the associated DNA label.
Kinase-tagged T7 phage strains were grown in parallel in 24-well blocks in an E. coli host derived from the BL21 strain. E. coli were grown to log-phase and infected with T7 phage from a frozen stock (multiplicity of infection=0.4) and incubated with shaking at 32° C. until lysis (90-150 minutes). The lysates were centrifuged (6,000×g) and filtered (0.2 μm) to remove cell debris. The remaining kinases were produced in HEK-293 cells and subsequently tagged with DNA for qPCR detection (Wein, et al. (2016) Nat. Comm. 7). […] Test compounds were prepared as 40× stocks in 100% DMSO and directly diluted into the assay. All reactions were performed in polypropylene 384-well plates in a final volume of 0.02 ml.

[6] = Brain penetration after IV, IP or PO administration in C57BL/6 mice; format: in vivo, mouse; settings: IV 5 mg/kg, IP 10 mg/kg, PO 30 mg/kg
Protocol: To determine the plasma concentrations and pharmacokinetics of the test compounds and test article following a single intravenous (IV) (5 mg/kg), intraperitoneal (IP) (10 mg/kg), or oral dose (PO) (30 mg/kg) administration to C57BL/6 male mice, the following testing [WAS/IS] performed according to the conductions set forth in Table 14.
The test drug is provided once as follows: Each I.V. dosing syringe is weighed loaded and unloaded to at least 4 decimal places. The actual dose (5 mg/kg) administered to the animal is the difference between the loaded and unloaded dosing syringe weights. Each IP dosing syringe is weighed loaded and unloaded to at least 4 decimal places. […]
Following I.V. dose administration, whole brain is collected following cardiocentesis from 4 animals at each of the following time points post-dose: 0.083 hr, 0.5 hr, 2 hr, 6 hr, 12 hr, and 24 hr. […] Whole brain is rinsed in 1×PBS, the tissue weight recorded and snap frozen in pre-labeled tubes using liquid nitrogen. In addition, whole brain from 5 naïve mice is harvested at 24 hr, rinsed in 1×PBS, the tissue weight recorded and snap frozen in pre-labeled tubes using liquid nitrogen.
Samples are analyzed by LC/MS/MS using an Agilent 6410 mass spectrometer coupled with an Agilent 1200 HPLC and a CTC PAL chilled autosampler, all controlled by MassHunter software (Agilent). […]

[7] = test system: human hepatocytes; assay: Metabolism in cultured hepatocytes; format: in vitro ADME
[8] = test system: cynomolgus monkey hepatocytes; assay: Metabolism in cultured hepatocytes; format: in vitro ADME

Chain of ROCK2 (O75116 whole entry, species assumed): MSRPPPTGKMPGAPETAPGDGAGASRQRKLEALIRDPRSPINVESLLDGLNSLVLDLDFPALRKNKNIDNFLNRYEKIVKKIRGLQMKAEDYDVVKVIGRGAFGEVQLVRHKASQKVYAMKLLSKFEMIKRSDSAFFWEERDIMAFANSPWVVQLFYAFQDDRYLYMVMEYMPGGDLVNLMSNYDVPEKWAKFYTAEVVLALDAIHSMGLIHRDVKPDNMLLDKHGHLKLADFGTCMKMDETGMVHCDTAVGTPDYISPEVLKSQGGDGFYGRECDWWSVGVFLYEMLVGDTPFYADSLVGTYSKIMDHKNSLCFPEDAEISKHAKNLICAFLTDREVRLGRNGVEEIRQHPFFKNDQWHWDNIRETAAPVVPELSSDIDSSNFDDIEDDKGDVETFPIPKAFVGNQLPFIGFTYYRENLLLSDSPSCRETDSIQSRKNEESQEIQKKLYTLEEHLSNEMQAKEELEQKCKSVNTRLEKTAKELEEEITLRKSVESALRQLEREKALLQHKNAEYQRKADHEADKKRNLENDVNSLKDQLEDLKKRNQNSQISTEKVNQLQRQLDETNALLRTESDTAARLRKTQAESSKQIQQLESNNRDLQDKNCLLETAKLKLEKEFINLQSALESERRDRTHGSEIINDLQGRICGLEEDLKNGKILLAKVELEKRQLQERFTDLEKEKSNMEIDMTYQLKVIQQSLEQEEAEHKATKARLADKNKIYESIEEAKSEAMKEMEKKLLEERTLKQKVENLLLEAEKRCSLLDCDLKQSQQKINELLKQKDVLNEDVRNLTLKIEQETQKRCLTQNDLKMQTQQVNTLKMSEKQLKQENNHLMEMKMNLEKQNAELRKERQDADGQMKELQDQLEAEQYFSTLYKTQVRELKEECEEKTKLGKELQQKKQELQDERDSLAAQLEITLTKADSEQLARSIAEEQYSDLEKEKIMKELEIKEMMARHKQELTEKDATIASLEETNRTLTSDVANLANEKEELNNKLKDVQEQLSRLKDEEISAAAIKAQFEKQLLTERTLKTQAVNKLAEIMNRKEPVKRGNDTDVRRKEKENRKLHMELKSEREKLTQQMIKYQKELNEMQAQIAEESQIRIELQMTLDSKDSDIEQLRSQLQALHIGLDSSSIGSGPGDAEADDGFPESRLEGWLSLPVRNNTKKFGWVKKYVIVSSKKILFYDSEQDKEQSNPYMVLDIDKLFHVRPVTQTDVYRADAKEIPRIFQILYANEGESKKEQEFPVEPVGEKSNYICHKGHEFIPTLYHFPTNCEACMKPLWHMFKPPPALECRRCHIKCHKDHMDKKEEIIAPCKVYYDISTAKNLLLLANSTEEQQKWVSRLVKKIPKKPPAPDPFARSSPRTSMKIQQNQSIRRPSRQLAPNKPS

Row | Compound | inhibitory activity for ROCK2 relative to parent BA-1049 (R) [1] | monolayer integrity after LPA [2] | concentration fully abolishing MLC2 diphosphorylation [3] [µM] | effect on MLC2 diphosphorylation (pMLC2 T18/S19) ([3]; no data shown) | monolayer integrity / Rho/ROCK activation after LPA [4] | % Negative Binding, ROCK1 [5] [%] | penetration into the brain [6] | ½ Life [7] [min] | ½ Life [8] [min]
1 | C[C@@H](N)C1CCN(S(=O)(=O)c2cccc3c(=O)[nH]ccc23)CC1 [1-hydroxy-BA-1049 (R)] | ½ log more potent as an inhibitor of ROCK2 activity than the parent | restores monolayer integrity | ≥ 10 | reduce MLC2 diphosphorylation | prevent Rho/ROCK activation | 0.15 |  |  | 
2 | C[C@@H](N)C1CCN(S(=O)(=O)c2cccc3cnccc23)CC1 [BA-1049 (R)] |  |  |  |  |  |  | able to penetrate the brain by the three routes of administration | 41.7 | 15.3
